Experimental data as given in patent US12426598B2, “Method for controlling herbicide-resistant weed” (SUMITOMO CHEMICAL COMPANY, LIMITED, priority 2019, dated 2025).

Key:
[1] = system: PPO inhibitor-resistant weeds; assay: Pot tests with crops in greenhouse (Examples 73 to 2304)
Procedure: On the same day, compound X is applied to the surface of soil so that the application rate of the compound X is 10, 20, 40, or 80 g/ha and the spray liquid amount is 200 L/ha. The plastic pot is then placed in a greenhouse, and at 7 days after the application, soybeans are seeded, and further at 14 days after seeding the soybeans, the effect on the weeds and crop injuries on the soybeans are investigated.
On the same day, compound X is applied to the surface of soil so that the application rate of the compound X is 10, 20, 40, or 80 g/ha and the spray liquid amount is 200 L/ha. The soybeans are then cultivated in a greenhouse, and at 21 days after seeding, the effect on the weeds and crop injuries on the soybeans are investigated.
The soybeans are then cultivated in a greenhouse, and at 21 days after seeding, compound X is applied to the stem and leaf so that the application rate of the compound X is 10, 20, 40, or 80 g/ha and the spray liquid amount is 200 L/ha. Further, the soybeans are cultivated in the greenhouse, and at 14 days after the application of compound X, the effect on the weeds and crop injuries on the soybeans are investigated.

[2] = system: palmer amaranth containing a Gly399Ala mutation in PPO2; assay: Foliar spray pot test in greenhouse, herbicidal effect; assay type: in vivo, Amaranthus palmeri; conditions: 200 L/ha, rating 0 to 100
[3] = system: waterhemp containing a Gly210 deficiency in PPO2; assay: as above; assay type: in vivo, Amaranthus tuberculatus; conditions: 200 L/ha, rating 0 to 100
[4] = Examples 289 to 432: as Examples 1 to 144, XtendiMax added at 1 pint/acre (560 g/ha)
[5] = Examples 433 to 576: as Examples 1 to 144, RoundupPowerMax 32 fluid ounce/acre and XtendiMax 1 pint/acre added
[6] = Example 2305: plant height 10 cm, sprayed 5 g/ha, 14 days after
[7] = Example 2306: plant height 30 cm, sprayed 20 g/ha, 7 days after

With `CCOC(=O)COc1ccccc1Oc1nc(-n2c(=O)cc(C(F)(F)F)n(C)c2=O)c(F)cc1Cl` [compound X] the “effect on the weeds” value [1, 4] was “effective control effect”, the “effect on the weeds” value [1, 5] was “effective control effect” and the Herbicidal effect [2, 6] was 100. It also gave a Herbicidal effect [2, 7] of 97, a Herbicidal effect [3, 6] of 60 and a Herbicidal effect [3, 7] of 45.

For `CCOC(=O)COc1ncccc1Oc1nc(-n2c(=O)cc(C(F)(F)F)n(C)c2=O)c(F)cc1Cl` [compound Y], the “effect on the weeds” value ([1]; Examples 73 to 144: as Examples 1 to 72, compound Y instead of compound X) was “effective control effect”, the “effect on the weeds” value [1, 4] was “effective control effect” and the “effect on the weeds” value [1, 5] was “effective control effect”.
